According to the supplement of paper PMC10307832:

How the values were obtained:
Assay in all cases: relative viability (nuclei count vs DMSO), 5 days (fraction); higher = more cells survive
Motesanib + Pictilisib = compound: CC1(C)CNc2cc(NC(=O)c3cccnc3NCc3ccncc3)ccc21 [Motesanib] + CS(=O)(=O)N1CCN(Cc2cc3nc(-c4cccc5[nH]ncc45)nc(N4CCOCC4)c3s2)CC1 [Pictilisib] (partner 1 µM)
Outline: (§1)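 Lung cancer cell lines, seeded in 1536-well plates, were treated the following day by pin tool with a single drug or with five library-drug doses (not always all listed) in √10 steps on top of a fixed anchor-drug dose. Cells were fixed and nuclei stained in one step after 5 days, and nuclei were counted. Relative viability is the nuclei count for treated wells divided by that for vehicle wells, reported as medians of duplicate plates.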

[1] = compound: C[C@@]1(C(=O)Nc2ccc(F)nc2)CCCN1c1nc(Nc2cc(C3CC3)n[nH]2)c2cccn2n1 + CC(=O)Nc1cccc(-n2c(=O)n(C3CC3)c(=O)c3c(Nc4ccc(I)cc4F)n(C)c(=O)c(C)c32)c1 [Trametinib] (partner 0.02 µM)
Outline: as §1

Motesanib + Decitabine = compound: CC1(C)CNc2cc(NC(=O)c3cccnc3NCc3ccncc3)ccc21 [Motesanib] + Nc1ncn([C@H]2C[C@H](O)[C@@H](CO)O2)c(=O)n1 [Decitabine] (partner 2 µM)
Outline: as §1

[2] = compound: C[C@@]1(C(=O)Nc2ccc(F)nc2)CCCN1c1nc(Nc2cc(C3CC3)n[nH]2)c2cccn2n1 + NC(=O)Nc1cc(-c2cccc(F)c2)sc1C(=O)N[C@H]1CCCNC1 [AZD7762] (partner 0.2 µM)
Outline: as §1

| Cell Line | relative viability (Motesanib + Pictilisib; first compound 0.01 µM) | relative viability (Motesanib + Pictilisib; first compound 0.03162 µM) | relative viability (Motesanib + Pictilisib; first compound 0.1 µM) | relative viability (Motesanib + Pictilisib; first compound 0.3162 µM) | relative viability (Motesanib + Pictilisib; first compound 1 µM) | relative viability ([1]; first compound 0.04 µM) | relative viability ([1]; first compound 0.1265 µM) | relative viability ([1]; first compound 0.4 µM) | relative viability ([1]; first compound 1.265 µM) | relative viability (Motesanib + Decitabine; first compound 0.01 µM) | relative viability (Motesanib + Decitabine; first compound 0.03162 µM) | relative viability (Motesanib + Decitabine; first compound 0.1 µM) | relative viability (Motesanib + Decitabine; first compound 0.3162 µM) | relative viability (Motesanib + Decitabine; first compound 1 µM) | relative viability ([2]; first compound 0.04 µM) | relative viability ([2]; first compound 0.1265 µM) | relative viability ([2]; first compound 0.4 µM) | relative viability ([2]; first compound 1.265 µM) |
| --- | --- | --- | --- | --- | --- | --- | --- | --- | --- | --- | --- | --- | --- | --- | --- | --- | --- | --- |
| 201T | 0.671 | 0.688 | 0.68 | 0.679 | 0.71 | 0.718 | 0.663 | 0.637 | 0.676 | 0.84 | 0.864 | 0.925 | 0.939 | 0.93 | 0.623 | 0.575 | 0.473 | 0.597 |
| A549 | 0.515 | 0.478 | 0.504 | 0.574 | 0.57 | – | – | – | – | 0.261 | 0.216 | 0.327 | 0.278 | 0.338 | – | – | – | – |
| A-427 | 0.43 | 0.684 | 0.495 | 0.681 | 0.789 | 0.644 | 0.548 | 0.537 | 0.579 | 0.563 | 0.554 | 0.544 | 0.568 | 0.556 | 0.64 | 0.642 | 0.647 | 0.427 |
| ABC-1 | 0.81 | 0.962 | 0.715 | 0.707 | 0.76 | – | – | – | – | 0.825 | 1.03 | 1.02 | 0.931 | 1.26 | 0.833 | 0.595 | 0.643 | 0.593 |
| BEN | 0.517 | 0.618 | 0.624 | 0.579 | 0.715 | 1.07 | 1.01 | 1.04 | 0.979 | 0.599 | 0.788 | 0.779 | 0.693 | 0.867 | 0.809 | 0.645 | 0.67 | 0.676 |
| CAL-12T | – | – | 0.358 | 0.403 | 0.434 | 0.333 | 0.214 | 0.351 | 0.253 | – | – | – | – | – | 0.659 | 0.765 | 0.78 | 0.677 |
| COR-L23 | 0.701 | 0.864 | 0.732 | 0.836 | 0.854 | 0.59 | 0.542 | 0.441 | 0.269 | 0.477 | 0.456 | 0.491 | 0.468 | 0.519 | – | – | – | – |
| COR-L 105 | 0.489 | 0.439 | 0.395 | 0.49 | 0.385 | 0.44 | 0.42 | 0.439 | 0.399 | 0.643 | 0.683 | 0.72 | 0.739 | 0.705 | – | – | – | – |
| Calu-6 | 0.878 | 0.727 | 0.944 | 0.867 | 0.84 | – | – | – | – | – | – | – | – | – | – | – | – | – |
| ChaGo-K-1 | – | 0.535 | 0.532 | 0.638 | 0.757 | 0.827 | 0.869 | 0.81 | 0.823 | 0.506 | 0.556 | 0.544 | 0.661 | 0.607 | 0.845 | 0.815 | 0.862 | 0.841 |
| EBC-1 | 0.503 | 0.366 | 0.302 | 0.385 | 0.335 | – | – | – | – | – | – | – | – | – | – | – | – | – |
| EKVX | 0.483 | 0.445 | 0.462 | 0.472 | 0.506 | 0.433 | 0.227 | 0.355 | 0.288 | 0.385 | 0.404 | 0.427 | 0.401 | 0.32 | 0.671 | 0.505 | 0.489 | 0.578 |
| EMC-BAC-2 | 0.582 | 0.564 | 0.537 | 0.542 | 0.6 | 0.801 | 0.533 | 0.443 | 0.558 | 0.956 | 0.979 | 1.01 | 0.984 | 1.04 | 1.14 | 0.644 | 0.679 | 0.54 |
| EPLC-272H | 0.296 | 0.176 | 0.267 | 0.317 | 0.309 | 0.266 | 0.252 | 0.234 | 0.231 | 0.37 | 0.371 | 0.387 | 0.335 | 0.402 | 0.215 | 0.187 | 0.212 | 0.164 |
| H3255 | 0.473 | 0.487 | 0.491 | 0.488 | 0.427 | 0.543 | 0.573 | 0.494 | 0.628 | 0.561 | 0.651 | 0.605 | 0.623 | 0.678 | 0.96 | 0.931 | 0.811 | 0.855 |
| HARA | 0.372 | 0.366 | 0.405 | 0.389 | 0.461 | 0.66 | 0.331 | 0.483 | 0.618 | 0.492 | 0.878 | 0.905 | 1.06 | 1.05 | 0.42 | 0.227 | 0.73 | 0.198 |
| HCC-15 | 0.786 | 0.729 | 0.653 | 0.848 | 0.747 | 0.237 | 0.204 | 0.19 | 0.264 | 0.592 | 0.621 | 0.648 | 0.81 | 0.69 | 1.07 | 1.18 | 1.25 | 1.13 |
